Laboratory results: patent US9260429B2, “Pyrido[3,4-B]indoles and methods of use” (Medivation Technologies, Inc., priority 2008, dated 2016)

Tests used:
[1] = target: T1, human recombinant histamine H1 receptor (Homo sapiens, UniProt P35367); test: Histamine H1 radioligand binding ([3H]Pyrilamine); conditions: 1 μM; read-out: Binding data (Percentage Inhibition) Histamine Binding (1 μM) H1
T1 construct: expressed in transfected cells; host or cells: CHO cells
Method: To evaluate in radioligand binding assays the activity of compounds of the invention, human recombinant histamine H1 receptor expressed in Chinese hamster ovary (CHO) cells (De Backer, M. D. et al., Biochem. Biophys. Res. Comm. 197(3):1601, 1993) in a modified Tris-HCl buffer (50 mM Tris-HCl, pH 7.4, 2 mM MgCl2, 100 mM NaCl, 250 mM Sucrose) was used. Compounds of the invention were incubated with 1.2 nM [^3H]Pyrilamine for 180 minutes at 25° C. Non-specific binding was estimated in the presence of 1 μM pyrilamine. Receptor proteins were filtered and washed, the filters were then counted to determine [^3H]Pyrilamine specifically bound. […] Biochemical assay results are presented as the percent inhibition of specific binding in Table 3.

[2] = target: T2, human recombinant histamine H2 receptor (Homo sapiens, UniProt P25021); test: Histamine H2 radioligand binding ([125I]Aminopotentidine); conditions: 1 μM; inhibition of specific [125I]Aminopotentidine binding; read-out: Binding data (Percentage Inhibition) Histamine Binding (1 μM) H2
T2 construct: expressed in transfected cells; host or cells: CHO-K1 cells
T2 sequence (P25021 whole entry): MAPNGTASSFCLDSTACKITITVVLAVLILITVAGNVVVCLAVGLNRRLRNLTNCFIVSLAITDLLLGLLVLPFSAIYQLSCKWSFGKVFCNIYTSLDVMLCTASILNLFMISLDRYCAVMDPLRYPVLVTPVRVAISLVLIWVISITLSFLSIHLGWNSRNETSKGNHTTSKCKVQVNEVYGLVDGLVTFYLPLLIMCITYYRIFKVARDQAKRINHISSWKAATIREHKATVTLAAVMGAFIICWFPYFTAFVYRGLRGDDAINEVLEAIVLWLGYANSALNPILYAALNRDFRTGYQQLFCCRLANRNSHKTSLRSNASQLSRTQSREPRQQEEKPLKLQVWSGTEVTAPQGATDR
Method: To evaluate in radioligand binding assays the activity of compounds of the invention, human recombinant histamine H2 receptor expressed in Chinese hamster ovary (CHO) K1 cells (Ruat, M., Proc. Natl. Acad. Sci. USA. 87(5):1658, 1990) in a 50 mM Phosphate buffer, pH 7.4 was used. Compounds of the invention were incubated with 0.1 nM [^125I]Aminopotentidine for 120 minutes at 25° C. Non-specific binding was estimated in the presence of 3 μM Tiotidine. Receptor proteins were filtered and washed, the filters were then counted to determine [^125I]Aminopotentidine specifically bound. Compounds were screened at 1 μM or lower, using 1% DMSO as vehicle. Biochemical assay results are presented as the percent inhibition of specific binding in Table 3.

[3] = target: T3, human recombinant dopamine D2L receptor (Homo sapiens, UniProt P14416); test: Dopamine D2L radioligand binding ([3H]Spiperone); conditions: 2 h, 1 μM ligand conc.; read-out: Percent Inhibition of ligand binding Dopamine (1 μM ligand conc.) D2L
T3 construct: expressed in transfected cells; host or cells: CHO cells
T3 sequence (P14416 whole entry): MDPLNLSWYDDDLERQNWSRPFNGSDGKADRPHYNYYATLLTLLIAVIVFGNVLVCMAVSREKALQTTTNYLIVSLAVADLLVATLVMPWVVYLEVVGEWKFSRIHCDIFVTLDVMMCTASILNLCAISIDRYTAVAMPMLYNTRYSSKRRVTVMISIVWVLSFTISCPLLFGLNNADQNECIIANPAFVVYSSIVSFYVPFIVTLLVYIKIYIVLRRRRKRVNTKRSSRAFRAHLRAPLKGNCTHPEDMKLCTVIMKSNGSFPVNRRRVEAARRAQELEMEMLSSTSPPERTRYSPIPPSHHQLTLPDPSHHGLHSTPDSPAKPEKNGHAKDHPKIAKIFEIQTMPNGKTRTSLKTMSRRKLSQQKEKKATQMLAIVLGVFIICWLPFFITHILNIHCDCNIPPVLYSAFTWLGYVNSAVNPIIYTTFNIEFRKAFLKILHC
Method: To evaluate in radioligand binding assays the activity of compounds of the invention, human recombinant dopamine D2L receptor expressed in Chinese hamster ovary (CHO) cells (Grandy, D. K. et al. Proc. Natl. Acad. Sci. USA. 86:9762, 1989; Hayes, G. et al., Mol. Endocrinol. 6:920, 1992) in a modified Tris-HCl buffer (50 mM Tris-HCl, pH 7.4, 1.4 mM Ascorbic Acid, 0.001% BSA, 150 mM NaCl) was used. Compounds of the invention were incubated with 0.16 nM [^3H]Spiperone for 120 minutes at 25° C. Non-specific binding was estimated in the presence of […] Haloperidol. Receptor proteins were filtered and washed, the filters were then counted to determine [^3H]Spiperone specifically bound. Compounds were screened at 1 μM or lower, using 1% DMSO as vehicle. Biochemical assay results are presented as the percent inhibition of specific binding in Table 4.

[4] = target: T4, human recombinant serotonin (5-Hydroxytryptamine) 5-HT2A receptor (Homo sapiens, UniProt P28223); test: Serotonin 5-HT2A radioligand binding ([3H]Ketanserin); conditions: 1 h; read-out: Percent Inhibition of ligand binding Serotonin (1 μM ligand concentration) 5-HT2A
T4 construct: expressed in transfected cells; host or cells: CHO-K1 cells
T4 sequence (P28223 whole entry): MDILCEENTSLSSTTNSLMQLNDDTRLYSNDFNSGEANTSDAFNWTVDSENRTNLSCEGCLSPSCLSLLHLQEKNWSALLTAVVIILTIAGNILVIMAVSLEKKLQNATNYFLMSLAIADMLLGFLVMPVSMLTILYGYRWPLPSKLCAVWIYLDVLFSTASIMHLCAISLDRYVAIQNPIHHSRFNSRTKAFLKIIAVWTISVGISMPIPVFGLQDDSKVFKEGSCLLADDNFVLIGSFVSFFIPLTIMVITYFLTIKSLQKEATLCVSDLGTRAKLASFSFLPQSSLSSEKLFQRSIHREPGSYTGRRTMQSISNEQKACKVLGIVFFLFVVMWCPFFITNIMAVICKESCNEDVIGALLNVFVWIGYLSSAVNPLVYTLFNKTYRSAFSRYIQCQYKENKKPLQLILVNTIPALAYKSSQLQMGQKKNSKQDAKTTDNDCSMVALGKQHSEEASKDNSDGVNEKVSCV
Method: To evaluate in radioligand binding assays the activity of compounds of the invention, human recombinant serotonin (5-Hydroxytryptamine) 5-HT2A receptor expressed in Chinese hamster ovary (CHO-K1) cells (Bonhaus, D. W. et al. Br. J. Pharmacol. 115:622, 1995; Saucier, C. and Albert, P. R., J. Neurochem. 68:1998, 1997) in a 50 mM Tris-HCl buffer, pH 7.4, was used. Compounds of the invention were incubated with 0.5 nM [^3H]Ketanserin for 60 minutes at 25° C. Non-specific binding was estimated in the presence of 1 μM Mianserin. Receptor proteins were filtered and washed, the filters were then counted to determine [^3H]Ketanserin specifically bound. Compounds were screened at 1 μM or lower, using 1% DMSO as vehicle. Biochemical assay results are presented as the percent inhibition of specific binding in Table 5.

[5] = target: T5, human recombinant serotonin (5-Hydroxytryptamine) 5-HT2C receptor (Homo sapiens, UniProt P28335); test: Serotonin 5-HT2C radioligand binding ([3H]Mesulergine); conditions: 1 h; read-out: Percent Inhibition of ligand binding Serotonin (1 μM ligand concentration) 5-HT2C
T5 construct: expressed in transfected cells; host or cells: CHO-K1 cells
T5 sequence (P28335 33-458): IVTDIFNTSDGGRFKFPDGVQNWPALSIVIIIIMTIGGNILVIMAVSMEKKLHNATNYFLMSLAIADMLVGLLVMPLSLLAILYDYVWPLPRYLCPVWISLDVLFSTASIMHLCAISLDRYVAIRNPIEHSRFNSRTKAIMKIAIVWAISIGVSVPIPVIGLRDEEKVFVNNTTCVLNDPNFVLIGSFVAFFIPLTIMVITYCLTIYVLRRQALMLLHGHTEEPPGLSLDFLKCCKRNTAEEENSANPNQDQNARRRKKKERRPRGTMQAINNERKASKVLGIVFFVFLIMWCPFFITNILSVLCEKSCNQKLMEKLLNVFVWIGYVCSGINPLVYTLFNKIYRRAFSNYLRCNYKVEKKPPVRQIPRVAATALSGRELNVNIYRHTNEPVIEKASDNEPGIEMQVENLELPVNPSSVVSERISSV
Method: Compounds of the invention were incubated with 1 nM [^3H]Mesulergine for 60 minutes at 25° C. Non-specific binding was estimated in the presence of 1 μM Mianserin. Receptor proteins were filtered and washed, the filters were then counted to determine [^3H]Mesulergine specifically bound. […] Biochemical assay results are presented as the percent inhibition of specific binding in Table 5.

[6] = target: T6, human recombinant serotonin (5-Hydroxytryptamine) 5-HT6 receptor (Homo sapiens, UniProt P50406); test: Serotonin 5-HT6 radioligand binding ([3H]LSD); conditions: 2 h; read-out: Percent Inhibition of ligand binding Serotonin (1 μM ligand concentration) 5-HT6
T6 construct: expressed in transfected cells; host or cells: human HeLa cells
T6 sequence (P50406 whole entry): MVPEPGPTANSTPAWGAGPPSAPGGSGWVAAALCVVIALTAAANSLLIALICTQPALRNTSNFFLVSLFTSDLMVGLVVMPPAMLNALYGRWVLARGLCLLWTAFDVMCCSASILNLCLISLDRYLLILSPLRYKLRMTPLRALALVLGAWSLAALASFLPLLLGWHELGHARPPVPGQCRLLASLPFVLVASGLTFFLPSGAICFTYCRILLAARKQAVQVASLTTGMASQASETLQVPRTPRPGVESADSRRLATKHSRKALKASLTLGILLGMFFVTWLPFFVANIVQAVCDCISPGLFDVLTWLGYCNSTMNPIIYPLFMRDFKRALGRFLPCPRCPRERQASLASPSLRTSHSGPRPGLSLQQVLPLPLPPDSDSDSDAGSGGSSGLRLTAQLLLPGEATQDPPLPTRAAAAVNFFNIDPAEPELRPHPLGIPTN
Method: To evaluate in radioligand binding assays the activity of compounds of the invention, human recombinant serotonin (5-Hydroxytryptamine) 5-HT6 receptor expressed in human HeLa cells (Monsma, F. J. Jr. et al., Mol. Pharmacol. 43:320, 1993) in a modified Tris-HCl buffer (50 mM Tris-HCl, pH 7.4, 150 mM NaCl, 2 mM Ascorbic Acid, 0.001% BSA) was used. Compounds of the invention were incubated with 1.5 nM [3H]Lysergic acid diethylamide (LSD) for 120 minutes at 37° C. Non-specific binding was estimated in the presence of […] Serotonin (5-HT). Receptor proteins were filtered and washed, the filters were then counted to determine [3H]LSD specifically bound. Compounds were screened at 1 μM or lower, using 1% DMSO as vehicle. Biochemical assay results are presented as the percent inhibition of specific binding in Table 5.

[7] = target: T7, human recombinant serotonin (5-Hydroxytryptamine) 5-HT7 receptor (Homo sapiens, UniProt P34969); test: Serotonin 5-HT7 radioligand binding ([3H]LSD); conditions: 2 h; read-out: Percent Inhibition of ligand binding Serotonin (1 μM ligand concentration) 5-HT7
T7 construct: expressed in transfected cells; host or cells: CHO cells
T7 sequence (P34969 whole entry): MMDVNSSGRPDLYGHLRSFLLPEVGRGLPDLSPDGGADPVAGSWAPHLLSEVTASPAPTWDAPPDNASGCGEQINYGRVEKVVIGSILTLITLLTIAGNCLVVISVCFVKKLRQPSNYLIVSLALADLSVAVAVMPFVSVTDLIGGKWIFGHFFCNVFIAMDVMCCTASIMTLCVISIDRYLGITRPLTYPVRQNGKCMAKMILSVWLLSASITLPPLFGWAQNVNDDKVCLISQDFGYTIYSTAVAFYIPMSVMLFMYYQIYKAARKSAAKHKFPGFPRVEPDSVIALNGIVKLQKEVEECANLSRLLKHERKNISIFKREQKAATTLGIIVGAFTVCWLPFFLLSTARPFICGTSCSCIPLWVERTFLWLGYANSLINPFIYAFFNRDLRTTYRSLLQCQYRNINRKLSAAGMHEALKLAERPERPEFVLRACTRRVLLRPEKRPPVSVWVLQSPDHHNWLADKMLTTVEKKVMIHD
Method: To evaluate in radioligand binding assays the activity of compounds of the invention, human recombinant serotonin (5-Hydroxytryptamine) 5-HT7 receptor expressed in Chinese hamster ovary (CHO) cells (Roth, B. L. et al., J. Pharmacol. Exp. Ther. 268:1403, 1994; Shen, Y. et al., J. Biol. Chem. 268:18200, 1993) in a modified Tris-HCl buffer (50 mM Tris-HCl, pH 7.4, 10 mM MgCl2, 0.5 mM EDTA) was used. Compounds of invention were incubated with 5.5 nM [^3H]Lysergic acid diethylamide (LSD) for 2 hours at 25° C. Non-specific binding was estimated in the presence of […] Serotonin (5-HT). Receptor proteins were filtered and washed, the filters were then counted to determine [^3H]LSD specifically bound. Compounds were screened at 1 μM or lower, using 1% DMSO as vehicle. Biochemical assay results are presented as the percent inhibition of specific binding in Table 5.

T1 sequence (P35367 whole entry): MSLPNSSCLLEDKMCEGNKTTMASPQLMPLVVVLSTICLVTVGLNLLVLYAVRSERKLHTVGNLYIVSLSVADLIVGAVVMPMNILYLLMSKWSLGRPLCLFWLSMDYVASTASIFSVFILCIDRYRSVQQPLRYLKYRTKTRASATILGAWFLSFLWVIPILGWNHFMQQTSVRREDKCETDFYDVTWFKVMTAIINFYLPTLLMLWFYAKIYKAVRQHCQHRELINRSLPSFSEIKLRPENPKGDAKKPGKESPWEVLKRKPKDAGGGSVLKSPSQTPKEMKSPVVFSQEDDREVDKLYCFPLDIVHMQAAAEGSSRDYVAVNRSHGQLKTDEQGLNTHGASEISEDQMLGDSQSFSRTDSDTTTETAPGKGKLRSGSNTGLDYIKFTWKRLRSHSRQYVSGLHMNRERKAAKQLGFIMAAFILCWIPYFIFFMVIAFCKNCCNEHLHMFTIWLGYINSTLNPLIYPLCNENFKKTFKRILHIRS

Row | Compound | inhibition at 1 µM [1] | inhibition at 1 µM [2] | inhibition at 1 µM [3] | inhibition at 1 µM [4] | inhibition at 1 µM [5] | inhibition at 1 µM [6] | inhibition at 1 µM [7]
1 | Cc1ccc2c(c1)c1c(n2C#Cc2ccc(Cl)cc2)C(C)N(C)CC1 (centres unmarked) [Compound 172, 9-((4-chlorophenyl)ethynyl)-1,2,6-trimethyl-2,3,4,9-tetrahydro-1H-pyrido[3,4-b]indole] | 11% | 45% | 1% | 96% | 100% | 10% | 1%
2 | CCC1c2c(c3cc(C)ccc3n2/C=C(\C)c2ccc(F)c(F)c2)CCN1C (centres unmarked) [Compound 176, (E)-9-(2-(3,4-difluorophenyl)prop-1-enyl)-1-ethyl-2,6-dimethyl-2,3,4,9-tetrahydro-1H-pyrido[3,4-b]indole] | 17% | 26% | -2% | 81% | 94% | 26% | 53%
3 | C/C(=C\n1c2c(c3cc(Cl)ccc31)CCN(C)C2)c1ccc(Cl)c(Cl)c1 [Compound 114, 6-chloro-9-(2-(3,4-dichlorophenyl)prop-1-enyl)-2-methyl-2,3,4,9-tetrahydro-1H-pyrido[3,4-b]indole] | 30% | 75% | 8% | 93% | 95% | 42% | 87%
4 | COc1ccc(/C(C)=C/n2c3c(c4cc(C)ccc42)CCN(C)C3)cc1F [Compound 121, 9-(2-(3-fluoro-4-methoxyphenyl)prop-1-enyl)-2,6-dimethyl-2,3,4,9-tetrahydro-1H-pyrido[3,4-b]indole] | 9% | 50% | 21% | 96% | 102% | 33% | 94%
5 | C/C(=C/n1c2c(c3cc(C)ccc31)CCN(C)C2C)c1ccc(Cl)cc1Cl (centres unmarked) [Compound 169] | 20% | 50% | 5% | 80% | 91% | 24% | 78%
6 | CCC1c2c(c3cc(C)ccc3n2/C=C(\C)c2ccc(Cl)c(Cl)c2)CCN1C (centres unmarked) [Compound 177, 9-(2-(3,4-dichlorophenyl)prop-1-enyl)-1-ethyl-2,6-dimethyl-2,3,4,9-tetrahydro-1H-pyrido[3,4-b]indole] | 11% | 39% | 9% | 83% | 88% | 6% | 57%
7 | Cc1ccc2c(c1)c1c(n2C#Cc2ccc(Cl)cc2)CN(C)CC1 [Compound 130, 9-((4-chlorophenyl)ethynyl)-2,6-dimethyl-2,3,4,9-tetrahydro-1H-pyrido[3,4-b]indole] | 5% | 51% | -3% | 91% | 95% | 7% | 22%
8 | C/C(=C\n1c2c(c3cc(Cl)ccc31)CCN(C)C2C)c1ccc(Cl)c(Cl)c1 (centres unmarked) [Compound 115, 6-chloro-9-(2-(3,4-dichlorophenyl)prop-1-enyl)-1,2-dimethyl-2,3,4,9-tetrahydro-1H-pyrido[3,4-b]indole] | 50% | 71% | 0% | 85% | 86% | 40% | 74%
9 | Cc1ccc2c(c1)c1c(n2C(=O)Cc2ccc(Cl)cc2)CN(C)CC1 [Compound 173] | 12% | 49% | 22% | 95% | 90% | 48% | 81%
10 | C/C(=C\n1c2c(c3cc(Cl)ccc31)CCN(C)C2)c1ccc(F)c(F)c1 [Compound 110, 6-chloro-9-(2-(3,4-difluorophenyl)prop-1-enyl)-2-methyl-2,3,4,9-tetrahydro-1H-pyrido[3,4-b]indole] | 25% | 64% | 10% | 93% | 97% | 73% | 87%
11 | CCC1c2c(c3cc(C)ccc3n2/C=C(\C)c2ccc(Cl)cc2Cl)CCN1C (centres unmarked) [Compound 170] | 27% | 60% | 1% | 96% | 98% | 36% | 74%
